In test [1] the test system is rats (tail, noxious heat stimulus). The experiment in a line: Tail-flick latency (TFL) test of local anaesthetic effect. In kind it is in vivo. As for the experimental part:
Local anaesthetic effects of LA-containing formulations were evaluated by tail-flick latency (TFL) test using a tail-flick measuring device (Ugo Basile, Varese, italy) (Puglia et al., 2011; Ouchi et al., 2013; Caffarel-Salvador et al., 2015). A noxious heat stimulus was applied via a focused, radiant heat light source to the dorsal surface of the tail. Tail-flick test started 5 min after the local application of different preparations, and the test was conducted every 10 min for 120 min. TFL was converted to represent the maximum possible effect (MPE) according to the following equation: […]
The baseline TFL was calculated as the mean of three different measurements taken at 10-min intervals. Baseline latencies were typically ranged from 2.5 to 3.0 s. A maximum cut-off latency of 10s was set to avoid tissue damage in analgesic animals. Results are expressed as mean±standard of eight rats per group.

Another test deals with Wistar rats. The experiment in a line: In vivo analgesia duration test using electrical stimulation (vocal response). On the set-up: species or system Wistar albino rats. As for the experimental part: In vivo analgesia duration test was conducted using electrical stimulation testing, which was used as a means of determining analgesia in animals and humans (Grant et al., 2000). Testing for analgesia was done by a vocal response to electrical stimulation (beginning at 1 mA and increasing to a maximum of 8 mA) at the skin directly overlying the abdomen at the site of injection using a current generator. The abdominal hair of the experimental rats was shaved off, and they were screened prior to injection to determine their vocalization threshold, the current required to produce a vocalization response.
Animals will be treated in the following manner.
Polyherbal anaesthetic formulation, standard drug and 0.9% normal saline samples were injected subcutaneously into the abdomen of the experimental rats, followed by determination of analgesia at the fixed time intervals (5, 10, 20, 30, 40, 50, 60, and 70 min).

Consider 1 compound from patent publication US20250213636A1, “A […] ANAESTHETIC FORMULATION AND A METHOD OF PREPARATION” (priority 2022, published 2025).

SMILES strings stand for the structures. Marks after values point to notes of the source that are not given here.

`CCN(CC)CC(=O)Nc1c(C)cccc1C` [lignocaine 2% solution, lignocaine]: the “Duration of anaesthetic effect/activity after application” value in test [1] is “up to 30 min”. The “Median duration of analgesia” value with Wistar rats (0.05 mL subcutaneous injection into abdomen, rats) worked out at 35 min. In addition, the “Percentage (%) of animals with analgesia” value is 100.00** % in the test on Wistar rats (5 minutes after 0.05 mL s.c.); 100.00** % with Wistar rats (10 minutes after 0.05 mL s.c.); 100.00** % in the test on Wistar rats (20 minutes after 0.05 mL s.c.); 66.67** % in the test with Wistar rats (30 minutes after 0.05 mL s.c.); 33.33** % in the test with Wistar rats (40 minutes after 0.05 mL s.c.); 33.33** % in the test on Wistar rats (50 minutes after 0.05 mL s.c.). Further, the “Percentage (%) of animals with analgesia” value with Wistar rats (60 minutes after 0.05 mL s.c.) and in the test on Wistar rats (70 minutes after 0.05 mL s.c.) was 16.67** % each time.
